Assay results published in article PMC4995014, “Identification of ABC Transporter Interaction of a Novel Cyanoquinoline Radiotracer and Implications for Tumour Imaging by Positron Emission Tomography” (PLoS ONE, 2016).

Experiments:
[1] = Caco2 transwell assay; type: in vitro ADME, human; conditions: human, Caco-2, no inhibitor; 10 μM cyanoquinoline or 50 μM vinblastine, 120 min; read-out: efflux ratio (Papp B-A / Papp A-B)
Description: (§1) The caco2 transwell assay was performed to assess permeability. Cells were seeded at a density of 60,000 cells per well in 24 well transwell plates (Millipore, Billerica, Massachutsetts, USA), and maintained in DMEM supplemented with […] glucose (20% FBS, 1% penicillin/streptomycin, 1% glutamine) for 21 days at 37°C in 5% CO2. After 21 days the cells differentiate into enterocytes and express all three MDR proteins, ABCB1 and ABCG2 at the apical side and ABCC1 on the basal side. On day 21, cells were washed three times with Hank's Balanced Salt Solution (HBSS) (Fisher scientific, Loughborough, UK) and the trans-epithelial electric resistance (TERR) was measured using an Epithelial Voltohmmeter (EVOM) (World Precision Instruments, Sarasota, USA); only transwells with TERR of 400 Ω/cm^2 or above were used for the experiment. Cells were treated either at the apical (n = 3) or basal (n = 3) side of the transwell by addition of 10 μM of cyanoquinoline compound or 50 μM vinblastine prepared in a volume of 400 μL HBSS (compound added to apical well) or 800 μL of HBSS (added to basal well). When transport inhibitors FTC (10 μM) or zosuquidar (0.3 μM) were used, they were added to both the apical and basal wells 1 h prior to drug treatment. After 1 h pre-treatment the medium was removed and cells were treated with the compounds prepared in HBSS containing FTC or Zosuquidar.
(§2) Plates were incubated in shaker incubator at 37°C and 60 rpm for 120 min. After incubation, 200 μL aliquots from the apical and the basal wells were collected and analysed using high performance liquid chromatography (HPLC). Samples were run on a Millipore Waters HPLC system which included a 717 plus autosampler and 2487 dual wavelength absorbance detector system. The stationary phase comprised of a Phenomenex Luna C18 reverse phase column (150 X 4.6 mm; 5 μm particle size). The mobile phase comprised water (0.1% TFA) and acetonitrile (0.1% TFA) (80:20 v/v) at a flow rate of 1 mL/min for all compounds except vinblastine. For vinblastine, the stationary phase comprised a Supelcosil LC-ABZ reverse phase column (5 × 4.6 mm; 5 μm particle size). The mobile phase comprised water (0.1% formic acid) and methanol (90:10 to 10:90 v/v gradient over 20 min). Peak areas corresponding to the compounds of interest were recorded. Using standard curves the areas under the curve were converted into concentrations of compound. The permeability coefficient (Papp) was calculated using the following equation [30]: Papp = (dQ/dt)/A C0, where A is the surface area of the transwell membrane in cm^2 (= 0.33 cm^2), C0 is the drug concentration in the donor chamber at time t = 0 and dQ/dt is the rate of transfer of the compound to the receiver chamber, determined from the slope of the graph concentration (dQ) versus time (dt). Papp values corresponding to absorption and secretion were assessed and used to calculate efflux ratio. Efflux ratio =(Papp B−A)/(Papp A−B) Where Papp A-B = Papp absorption and Papp B-A = Papp secretion.
(§3) The integrity of the caco2 cell membrane was assessed for each well following the experiment by addition of a 100 μM solution of […] (Sigma) in HBSS to the apical side of the plate. The plates were placed in the shaker incubator for 1 h at 37°C and 60 rpm. Samples from the basal wells were transferred into a 96 well plate and the levels of […] were assessed by measuring with an excitation of 450 nm and an emission of 540 nm using the PerkinElmer Wallac 1420 counter.

[2] = tested on: caco2 cells; experiment: Caco2 transwell assay; type: in vitro ADME, human; conditions: pre-treatment with zosuquidar
Description: as §1, §2, §3

[3] = target: T1, EGFR Del E746-A750 (PC9 cells) (Homo sapiens, UniProt P00533, DEL746-750); experiment: Inhibition of EGFR autophosphorylation (p-EGFR Y1068, western blot) in PC9 cells; type: cell-based; conditions: 3 h incubation, densitometry of western blots
T1 construct: endogenous in cells; host or cells: PC9 (Dr Olivier Pardo, Imperial College London)
Description: (§4) Affinity of the cyanoquinolines for EGFR was established by measuring their inhibition of EGFR autophosphorylation via western blot. Cells were seeded in 6 well plates and following 24 h of growth, were subject to overnight serum starvation. The cells were then treated with increasing concentrations of cyanoquinolines prepared in serum free growth media from a DMSO stock (final DMSO concentration < 1%) for 3 h at 37°C, and stimulated for receptor autophosphorylation by addition of 100 ng/mL of EGF during the last 15 minutes of drug incubation. After 3 h the cells were placed on ice, media removed and then the cells were washed two times with ice cold phosphate buffered saline (PBS). Lysates were analysed by western blot to measure changes to p-EGFR Y1068.
(§5) Cells were collected into a microcentrifuge tube and sonicated for 30 seconds on ice. Cellular protein levels were assessed using a bicinchoninic acid (BCA) protein assay kit according to the manufacturer’s instructions (Thermo scientific). […] Samples were transferred to polyvinylidene difluoride (PVDF) membrane using Trans-Blot Turbo system BIO-RAD (Hercules, California, USA). […] The membranes were then incubated overnight with primary antibody prepared in 1% milk or 1% BSA in TBST. […] Membranes were washed a further three times for 10 minutes with TBST. […]

[4] = target: T2, EGFR Del E746-A750/T790M (PC9ER cells) (Homo sapiens, UniProt P00533, DEL746-750/T790M); experiment: Inhibition of EGFR autophosphorylation (p-EGFR Y1068, western blot) in PC9ER cells; type: cell-based
T2 construct: endogenous in cells; host or cells: PC9ER (Dr Olivier Pardo, Imperial College London)
Description: as §4
Cells were collected into a microcentrifuge tube and sonicated for 30 seconds on ice. Cellular protein levels were assessed using a bicinchoninic acid (BCA) protein assay kit according to the manufacturer’s instructions (Thermo scientific). […] Samples were transferred to polyvinylidene difluoride (PVDF) membrane using Trans-Blot Turbo system BIO-RAD (Hercules, California, USA). […] The membranes were then incubated overnight with primary antibody prepared in 1% milk or 1% BSA in TBST. […] Membranes were washed a further three times for 10 minutes with TBST. Blots were visualised using chemoluminescence (ECL, GE Healthcare, Little Chalfont, UK) and developed on Amersham Hyperfilm ECL (GE Healthcare). β-Actin was used as a loading control.

[5] = target: T3, EGFR L858R (H3255 cells) (Homo sapiens, UniProt P00533, L858R); experiment: Inhibition of EGFR autophosphorylation (p-EGFR Y1068, western blot) in H3255 cells; type: cell-based; conditions: 3 h incubation, densitometry of western blots
T3 construct: host or cells: H3255
Description: as §4, §5

[6] = target: T4, EGFR L858R/T790M (H1975 cells) (Homo sapiens, UniProt P00533, L858R/T790M); experiment: Inhibition of EGFR autophosphorylation (p-EGFR Y1068, western blot) in H1975 cells; type: cell-based; conditions: 3 h incubation, densitometry of western blots
T4 construct: host or cells: H1975
Description: as §4, §5

[7] = tested on: EGFR; parameters: method as in PMID 20797871, PMID 24307532; conditions: cell-free; read-out: IC50 for inhibition of cell-free EGFR phosphorylation; cited from earlier work
[8] = tested on: PC9 and PC9ER cells; experiment: Cell uptake assay in PC9 versus PC9ER cells; type: cell-based; conditions: 1 h incubation
Description: (§6) [^18F]FED6 and [^18F]FED20 were synthesised as previously reported. To increase specific radioactivity of [^18F]FED20, we modified the synthesis by decreasing the amount of alkyne precursor from 1 mg down to 0.5 mg. While this had the desired effect of increasing the specific activity from 7.3 GBq/μmol up to 52 GBq/μmol, the conversion of the alkyne to the triazole product dropped from > 95% down to 45%. Cells were seeded in 6 well plates and [^18F]FED6 (0.22 MBq) or [^18F]FED20 (0.55 MBq or 0.74 MBq) added to each well and incubated at 37°C for 1 h. Media were then removed and cells were washed twice with PBS. The cells were trypsinised and centrifuged for 3 minutes at 2000 rpm to obtain a pellet. The cell pellet was washed once with PBS and resuspended in 200 μL of RIPA buffer. Cell lysates were transferred to gamma counting tubes and the radioactivity in the pellet was measured on a Packard Cobra II gamma counter, (Perkin-Elmer, Waltham, Massachusetts, USA). Protein concentrations of samples were evaluated using Pierce® BCA Protein Assay Kit (Thermo Scientific, Waltham, Massachusetts, USA). Data were expressed as background- and decay-corrected counts per minute (CCPMA) per μg of cellular protein.

[9] = tested on: cells; experiment: Cell uptake assay, overall magnitude of uptake; type: cell-based
Description: as §6

T2 sequence (P00533 with tags, fused parts or gaps DEL746-750/T790M): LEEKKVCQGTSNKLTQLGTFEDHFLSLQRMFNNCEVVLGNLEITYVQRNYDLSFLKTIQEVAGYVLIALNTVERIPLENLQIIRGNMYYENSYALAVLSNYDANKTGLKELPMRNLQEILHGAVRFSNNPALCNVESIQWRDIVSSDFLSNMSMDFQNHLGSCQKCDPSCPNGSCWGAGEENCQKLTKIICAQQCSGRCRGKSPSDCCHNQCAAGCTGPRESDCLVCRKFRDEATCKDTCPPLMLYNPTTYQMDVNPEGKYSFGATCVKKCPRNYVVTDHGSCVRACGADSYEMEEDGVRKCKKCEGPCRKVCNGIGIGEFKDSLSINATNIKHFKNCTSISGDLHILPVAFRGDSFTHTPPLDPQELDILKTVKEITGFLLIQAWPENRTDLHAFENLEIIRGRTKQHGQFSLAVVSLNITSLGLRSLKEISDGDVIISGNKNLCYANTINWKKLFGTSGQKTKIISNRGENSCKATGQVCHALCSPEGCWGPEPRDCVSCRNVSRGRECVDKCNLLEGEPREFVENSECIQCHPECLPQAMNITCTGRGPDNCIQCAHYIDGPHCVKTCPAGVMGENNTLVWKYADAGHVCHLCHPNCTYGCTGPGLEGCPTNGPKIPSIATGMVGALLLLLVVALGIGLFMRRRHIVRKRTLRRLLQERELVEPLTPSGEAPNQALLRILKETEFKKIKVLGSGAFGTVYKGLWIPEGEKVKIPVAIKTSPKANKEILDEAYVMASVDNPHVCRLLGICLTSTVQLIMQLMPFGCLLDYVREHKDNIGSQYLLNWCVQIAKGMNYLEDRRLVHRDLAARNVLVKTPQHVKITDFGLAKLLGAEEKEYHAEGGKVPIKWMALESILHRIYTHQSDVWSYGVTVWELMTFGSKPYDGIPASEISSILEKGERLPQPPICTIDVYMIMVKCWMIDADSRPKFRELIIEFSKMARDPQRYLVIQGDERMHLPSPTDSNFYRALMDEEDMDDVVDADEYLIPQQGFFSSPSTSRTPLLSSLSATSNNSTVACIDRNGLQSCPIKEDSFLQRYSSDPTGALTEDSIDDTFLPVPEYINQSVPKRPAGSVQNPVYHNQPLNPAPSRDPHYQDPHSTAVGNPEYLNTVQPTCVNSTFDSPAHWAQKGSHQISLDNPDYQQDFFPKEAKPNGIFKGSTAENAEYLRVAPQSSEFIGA
T3 sequence (P00533 25-1210 L858R): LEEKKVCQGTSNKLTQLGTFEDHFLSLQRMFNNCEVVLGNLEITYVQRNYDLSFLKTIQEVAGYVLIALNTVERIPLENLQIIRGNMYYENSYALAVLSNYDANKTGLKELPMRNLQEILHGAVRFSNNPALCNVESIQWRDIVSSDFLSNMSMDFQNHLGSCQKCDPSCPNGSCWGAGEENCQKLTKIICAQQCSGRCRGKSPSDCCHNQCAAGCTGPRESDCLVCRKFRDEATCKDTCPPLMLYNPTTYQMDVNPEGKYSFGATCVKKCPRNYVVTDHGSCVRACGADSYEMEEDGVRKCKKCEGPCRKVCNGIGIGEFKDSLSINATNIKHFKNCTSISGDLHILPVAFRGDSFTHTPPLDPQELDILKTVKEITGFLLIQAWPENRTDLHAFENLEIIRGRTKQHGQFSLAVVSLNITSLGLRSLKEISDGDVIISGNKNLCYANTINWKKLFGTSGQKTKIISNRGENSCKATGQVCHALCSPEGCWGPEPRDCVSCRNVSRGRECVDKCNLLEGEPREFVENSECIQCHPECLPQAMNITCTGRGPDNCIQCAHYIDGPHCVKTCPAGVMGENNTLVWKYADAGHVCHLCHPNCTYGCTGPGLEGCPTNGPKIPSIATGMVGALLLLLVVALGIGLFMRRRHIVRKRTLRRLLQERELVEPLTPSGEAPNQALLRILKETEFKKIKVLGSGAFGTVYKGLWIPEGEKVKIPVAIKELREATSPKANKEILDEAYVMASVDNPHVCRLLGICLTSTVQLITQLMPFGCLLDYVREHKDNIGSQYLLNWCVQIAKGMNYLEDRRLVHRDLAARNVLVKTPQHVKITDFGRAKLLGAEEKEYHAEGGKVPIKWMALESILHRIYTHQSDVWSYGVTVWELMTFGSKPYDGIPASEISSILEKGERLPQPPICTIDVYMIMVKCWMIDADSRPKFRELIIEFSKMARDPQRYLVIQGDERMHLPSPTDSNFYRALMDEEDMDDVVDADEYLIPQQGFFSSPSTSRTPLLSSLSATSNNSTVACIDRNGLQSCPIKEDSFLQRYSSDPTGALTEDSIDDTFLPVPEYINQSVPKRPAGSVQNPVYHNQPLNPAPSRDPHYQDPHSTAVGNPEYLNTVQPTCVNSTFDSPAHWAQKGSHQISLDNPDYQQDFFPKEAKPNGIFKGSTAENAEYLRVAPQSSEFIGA
T4 sequence (P00533 25-1210 T790M/L858R): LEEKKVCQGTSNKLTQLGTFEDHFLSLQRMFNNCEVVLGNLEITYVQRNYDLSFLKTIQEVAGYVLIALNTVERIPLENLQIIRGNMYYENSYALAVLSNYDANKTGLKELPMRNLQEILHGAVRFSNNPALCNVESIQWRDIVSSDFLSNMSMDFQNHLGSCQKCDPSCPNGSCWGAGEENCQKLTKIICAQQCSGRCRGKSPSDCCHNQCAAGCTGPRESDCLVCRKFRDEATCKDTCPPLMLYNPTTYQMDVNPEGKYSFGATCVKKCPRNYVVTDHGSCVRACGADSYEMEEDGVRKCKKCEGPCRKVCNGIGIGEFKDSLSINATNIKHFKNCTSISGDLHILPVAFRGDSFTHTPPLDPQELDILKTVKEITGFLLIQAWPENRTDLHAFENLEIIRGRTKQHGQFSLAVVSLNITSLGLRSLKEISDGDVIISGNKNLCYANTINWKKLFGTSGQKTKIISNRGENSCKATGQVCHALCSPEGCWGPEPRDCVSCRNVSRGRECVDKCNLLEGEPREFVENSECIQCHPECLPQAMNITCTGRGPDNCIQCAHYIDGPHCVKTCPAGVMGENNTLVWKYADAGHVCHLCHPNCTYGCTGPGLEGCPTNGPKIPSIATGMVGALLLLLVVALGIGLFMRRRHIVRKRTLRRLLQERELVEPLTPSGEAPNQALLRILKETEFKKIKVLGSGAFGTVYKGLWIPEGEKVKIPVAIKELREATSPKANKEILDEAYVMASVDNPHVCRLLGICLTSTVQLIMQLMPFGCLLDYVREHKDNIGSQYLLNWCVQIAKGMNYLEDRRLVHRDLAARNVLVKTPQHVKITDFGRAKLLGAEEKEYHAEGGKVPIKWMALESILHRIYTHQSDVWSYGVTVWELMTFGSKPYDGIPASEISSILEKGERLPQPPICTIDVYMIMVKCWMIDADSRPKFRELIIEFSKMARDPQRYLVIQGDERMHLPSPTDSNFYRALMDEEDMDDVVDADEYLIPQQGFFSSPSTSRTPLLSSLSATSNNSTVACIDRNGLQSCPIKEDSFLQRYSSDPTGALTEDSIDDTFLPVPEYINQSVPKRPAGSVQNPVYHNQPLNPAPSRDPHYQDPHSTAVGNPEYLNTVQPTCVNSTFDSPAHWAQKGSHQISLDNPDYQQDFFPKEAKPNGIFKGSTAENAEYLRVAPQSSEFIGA
T1 sequence (P00533 with tags, fused parts or gaps DEL746-750): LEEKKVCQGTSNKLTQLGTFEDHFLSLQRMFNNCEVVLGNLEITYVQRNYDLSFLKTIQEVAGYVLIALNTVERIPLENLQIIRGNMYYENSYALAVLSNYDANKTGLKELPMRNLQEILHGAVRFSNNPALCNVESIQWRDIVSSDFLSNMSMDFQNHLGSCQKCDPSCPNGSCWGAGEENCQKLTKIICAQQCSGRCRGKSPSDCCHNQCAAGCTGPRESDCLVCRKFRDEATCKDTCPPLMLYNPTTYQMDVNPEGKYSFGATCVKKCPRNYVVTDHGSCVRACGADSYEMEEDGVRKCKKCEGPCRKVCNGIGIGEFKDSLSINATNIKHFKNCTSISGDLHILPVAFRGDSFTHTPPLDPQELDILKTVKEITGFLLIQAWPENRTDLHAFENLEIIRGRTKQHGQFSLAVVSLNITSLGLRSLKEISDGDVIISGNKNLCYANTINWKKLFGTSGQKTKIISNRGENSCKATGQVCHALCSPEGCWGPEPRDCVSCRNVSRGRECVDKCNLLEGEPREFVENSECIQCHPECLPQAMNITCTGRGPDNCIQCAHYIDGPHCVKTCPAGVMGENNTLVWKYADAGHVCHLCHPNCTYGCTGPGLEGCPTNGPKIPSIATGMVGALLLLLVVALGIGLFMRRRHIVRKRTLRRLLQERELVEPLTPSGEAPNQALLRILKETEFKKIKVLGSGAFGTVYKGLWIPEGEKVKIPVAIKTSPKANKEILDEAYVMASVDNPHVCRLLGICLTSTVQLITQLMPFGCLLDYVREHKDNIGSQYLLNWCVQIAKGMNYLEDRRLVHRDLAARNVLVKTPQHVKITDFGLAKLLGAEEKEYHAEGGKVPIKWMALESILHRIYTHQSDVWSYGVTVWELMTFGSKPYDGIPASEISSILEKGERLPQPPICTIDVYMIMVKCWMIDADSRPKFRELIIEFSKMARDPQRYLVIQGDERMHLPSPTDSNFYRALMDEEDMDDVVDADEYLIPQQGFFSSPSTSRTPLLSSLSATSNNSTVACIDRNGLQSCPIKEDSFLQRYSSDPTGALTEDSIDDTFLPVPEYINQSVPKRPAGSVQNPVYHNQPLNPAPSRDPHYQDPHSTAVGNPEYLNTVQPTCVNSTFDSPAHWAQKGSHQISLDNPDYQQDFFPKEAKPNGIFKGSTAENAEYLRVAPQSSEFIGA

Compound	efflux ratio at 120 min [1]	efflux (permeability) ratio after pre-treatment with zosuquidar [2]	IC50 [3]	IC50 ([4]; 3 h incubation, densitometry of western blots)	fold higher IC50 (p-EGFR) in PC9ER compared to PC9 ([4]; PC9ER versus isogenic PC9)	IC50 [5]	IC50 [6]	IC50 [7]	fold higher uptake in PC9 compared to PC9ER cells [8]	fold lower magnitude of uptake than [^18F]FED6 [9]
CCOc1cc2ncc(C#N)c(Nc3ccc(F)c(Cl)c3)c2cc1NC(=O)/C=C/CNCc1cn([C@@H]2OC(CO)[C@@H](O)C(O)C2F)nn1 (stereo partly drawn) [FED20, (2E)-N-{4-[(3-chloro-4-fluorophenyl)amino]-3-cyano-7-ethoxyquinolin-6-yl}-4-[({1-[(2R,5S)-3-fluoro-4,5-dihydroxy-6-(hydroxymethyl)oxan-2-yl]-1H-1,2,3-triazol-4-yl}methyl)amino]but-2-enamide]	1.3	did not have any effect	300 nM	700 nM	2 fold	300 nM	7100 nM	4.5 nM	–	–
CCOc1cc2ncc(C#N)c(Nc3ccc(F)c(Cl)c3)c2cc1NC(=O)/C=C/CNCc1cn([C@@H]2OC(CO)[C@@H](O)C(O)C2[18F])nn1 (stereo partly drawn) [[^18F]FED20, [^18F](2E)-N-{4-[(3-chloro-4-fluorophenyl)amino]-3-cyano-7-ethoxyquinolin-6-yl}-4-[({1-[(2R,5S)-3-fluoro-4,5-dihydroxy-6-(hydroxymethyl)oxan-2-yl]-1H-1,2,3-triazol-4-yl}methyl)amino]but-2-enamide]	–	–	–	–	–	–	–	–	2 fold	> 5 fold
